Reference: ChEMBL document CHEMBL1201862, “PubChem BioAssay data set” (2004)
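Protocol summary: plate cells (96-well), add compound at 5 concentrations, incubate 48 h, interpolate endpoints linearly. GI50 is the concentration that inhibits growth by half.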 Calls of active or inactive are those of the source. No stated cut-off is given here; in the data, active = GI50 up to about 1.1 µM and inactive = higher.

Key:
Experiment in all cases: DTP human tumour cell line panel, 48 h
[1] = test system: UACC-62
[2] = test system: HCT-116
[3] = test system: HCT-15
[4] = test system: OVCAR-8
[5] = test system: NCI-H522
[6] = test system: HOP-92
[7] = test system: SW-620
[8] = test system: TK-10
[9] = test system: T47D
[10] = test system: MOLT-4
[11] = test system: HT-29
[12] = test system: MDA-MB-435
[13] = test system: ACHN
[14] = test system: OVCAR-3
[15] = test system: RPMI-8226
[16] = test system: OVCAR-4
[17] = test system: COLO 205
[18] = test system: SNB-19
[19] = test system: SF-295
[20] = test system: SK-MEL-28

Row | Compound | GI50 [1] | GI50 [2] | GI50 [3] | GI50 [4] | GI50 [5] | GI50 [6] | GI50 [7] | GI50 [8] | GI50 [9] | GI50 [10] | GI50 [11] | GI50 [12] | GI50 [13] | GI50 [14] | GI50 [15] | GI50 [16] | GI50 [17] | GI50 [18] | GI50 [19] | GI50 [20]
1 | CC(C)CCC[C@@H](C)[C@H]1CC[C@H]2[C@@H]3CC[C@H]4C[C@@H](CCC=C(c5cc(Cl)c(O)c(C(=O)O)c5)c5cc(Cl)c(O)c(C(=O)O)c5)CC[C@]4(C)[C@H]3CC[C@]12C | > 100 µM (inactive) | > 100 µM (inactive) | > 100 µM | > 100 µM (inactive) | > 100 µM (inactive) | > 100 µM (inactive) | > 100 µM (inactive) | > 100 µM (inactive) | > 100 µM (inactive) | > 100 µM (inactive) | > 100 µM (inactive) | > 100 µM (inactive) | > 100 µM (inactive) | > 100 µM (inactive) | > 100 µM (inactive) | > 100 µM (inactive) | > 100 µM (inactive) | > 100 µM (inactive) | > 100 µM (inactive) | > 100 µM (inactive)
2 | C=C(CC)C(=O)c1ccc(OCC(=O)O)c(Cl)c1Cl [ETHACRYNIC ACID] | 15.2 µM (inactive) | 23.1 µM (inactive) | 22.6 µM | 17.5 µM (inactive) | 14.8 µM (inactive) | 12.2 µM (inactive) | 19.3 µM (inactive) | 16.1 µM (inactive) | 9.35 µM (inactive) | 20.2 µM (inactive) | 17.9 µM (inactive) | 17.5 µM (inactive) | 26.8 µM (inactive) | 16.1 µM (inactive) | 14.5 µM (inactive) | 20 µM (inactive) | 19 µM (inactive) | 15.6 µM (inactive) | 35.6 µM (inactive) | 17.6 µM (inactive)
3 | Cc1cc(S(=O)(=O)Nc2nc(N)n(C)n2)c(S)cc1Cl | > 10 µM (inactive) | > 10 µM (inactive) | > 10 µM | > 10 µM (inactive) | > 10 µM (inactive) | – | > 10 µM (inactive) | > 10 µM (inactive) | > 10 µM (inactive) | > 10 µM (inactive) | > 10 µM (inactive) | > 10 µM (inactive) | > 10 µM (inactive) | > 10 µM (inactive) | > 10 µM (inactive) | > 10 µM (inactive) | > 10 µM (inactive) | > 10 µM (inactive) | > 10 µM (inactive) | > 10 µM (inactive)
4 | Clc1cccc(C2ON=C(c3ccccc3)N2C23CC4CC(CC(C4)C2)C3)c1Cl (stereo unspecified) | > 10 µM (inactive) | > 10 µM (inactive) | > 10 µM | > 10 µM (inactive) | > 10 µM (inactive) | 2.72 µM (inactive) | > 10 µM (inactive) | > 10 µM (inactive) | > 10 µM (inactive) | > 10 µM (inactive) | > 10 µM (inactive) | > 10 µM (inactive) | > 10 µM (inactive) | > 10 µM (inactive) | > 10 µM (inactive) | > 10 µM (inactive) | > 10 µM (inactive) | > 10 µM (inactive) | > 10 µM (inactive) | > 10 µM (inactive)
5 | COc1cc([C@H]2Oc3c(OC)cc(CCCO)cc3[C@@H]2CO)ccc1O [DIHYDRODEHYDRODICONIFERY ALCOHOL] | 55.3 µM (inactive) | > 100 µM (inactive) | > 100 µM | > 100 µM (inactive) | 69.2 µM (inactive) | 89.5 µM (inactive) | > 100 µM (inactive) | > 100 µM (inactive) | 30.3 µM (inactive) | 51.6 µM (inactive) | > 100 µM (inactive) | > 100 µM (inactive) | > 100 µM (inactive) | > 100 µM (inactive) | 55.1 µM (inactive) | 76.4 µM (inactive) | > 100 µM (inactive) | > 100 µM (inactive) | > 100 µM (inactive) | > 100 µM (inactive)
6 | Cc1cc(C)c(S(=O)(=O)N[C@@H](/C=C(\Br)CO)C(C)C)c(C)c1 | 13.2 µM (inactive) | 33.4 µM (inactive) | 37.8 µM | 33.7 µM (inactive) | 17.7 µM (inactive) | 23.1 µM (inactive) | 27 µM (inactive) | 34.5 µM (inactive) | 25.9 µM (inactive) | 24.2 µM (inactive) | 31 µM (inactive) | 17.3 µM (inactive) | 30.4 µM (inactive) | 21.2 µM (inactive) | 21.6 µM (inactive) | – | 15.8 µM (inactive) | 56 µM (inactive) | 30.2 µM (inactive) | 24.9 µM (inactive)
7 | N#CC1=C(N2CCOCC2)CCC1 | > 100 µM (inactive) | > 100 µM (inactive) | > 100 µM | > 100 µM (inactive) | > 100 µM (inactive) | – | > 100 µM (inactive) | > 100 µM (inactive) | > 100 µM (inactive) | > 100 µM (inactive) | > 100 µM (inactive) | > 100 µM (inactive) | > 100 µM (inactive) | > 100 µM (inactive) | > 100 µM (inactive) | > 100 µM (inactive) | > 100 µM (inactive) | > 100 µM (inactive) | > 100 µM (inactive) | –
8 | N=c1oc2ccc([N+](=O)[O-])cc2cc1C(=O)NCc1ccccc1 | 20.2 µM (inactive) | 16.3 µM (inactive) | 17.8 µM | 15.2 µM (inactive) | 12.8 µM (inactive) | 18 µM (inactive) | 20 µM (inactive) | 29.2 µM (inactive) | 17.9 µM (inactive) | 27.9 µM (inactive) | 18.5 µM (inactive) | 23.1 µM (inactive) | 16.7 µM (inactive) | – | 38.7 µM (inactive) | 24.6 µM (inactive) | 20.6 µM (inactive) | 39 µM (inactive) | 36.4 µM (inactive) | 20.3 µM (inactive)
9 | C=CCN1C(=O)/C(=C/c2ccccc2)N=C1SC1OC(COC(C)=O)C(OC(C)=O)C(OC(C)=O)C1OC(C)=O (stereo unspecified) | 14.4 µM (inactive) | 22.8 µM (inactive) | 28.1 µM | 29.5 µM (inactive) | 16.3 µM (inactive) | 23.7 µM (inactive) | 28.5 µM (inactive) | 72.8 µM (inactive) | 27.2 µM (inactive) | 19.9 µM (inactive) | 32.7 µM (inactive) | 26.9 µM (inactive) | 22.9 µM (inactive) | 19.3 µM (inactive) | 24.4 µM (inactive) | 27.2 µM (inactive) | – | 29.6 µM (inactive) | 50.1 µM (inactive) | 26.1 µM (inactive)
10 | O=C1Cc2c([nH]c3ccc(Br)cc23)-c2ccccc2N1 [KENPAULLONE] | > 100 µM (inactive) | – | 4.46 µM | > 100 µM (inactive) | > 100 µM (inactive) | > 100 µM (inactive) | – | > 100 µM (inactive) | > 100 µM (inactive) | 13.5 µM (inactive) | 5.19 µM (inactive) | > 100 µM (inactive) | > 100 µM (inactive) | 3.95 µM (inactive) | > 20.5 µM (inactive) | > 100 µM (inactive) | > 100 µM (inactive) | > 78.5 µM (inactive) | > 100 µM (inactive) | > 62.4 µM (inactive)
11 | COc1ccc(OC)c(CC2CCc3nc(N)nc(N)c3C2)c1 (stereo unspecified) | < 0.0133 µM (active) | < 0.01 µM (active) | < 0.0435 µM | 20.3 µM (inactive) | 0.774 µM (active) | 21.9 µM (inactive) | 0.286 µM (active) | 8.32 µM (inactive) | 20.1 µM (inactive) | 1.52 µM (inactive) | 6.68 µM (inactive) | 12.6 µM (inactive) | < 0.0284 µM (active) | 15 µM (inactive) | 18.2 µM (inactive) | 28.8 µM (inactive) | 10.2 µM (inactive) | 1.21 µM (inactive) | – | 18.8 µM (inactive)
12 | CC1(C)N=C(N)N=C(N)N1CCCCc1ccccc1 | 0.453 µM (active) | 0.0364 µM (active) | 2.92 µM | 0.251 µM (active) | 0.708 µM (active) | > 62.2 µM (inactive) | – | 1.19 µM (inactive) | 10.4 µM (inactive) | 0.104 µM (active) | 0.124 µM (active) | 0.155 µM (active) | 1.48 µM (inactive) | 0.601 µM (active) | 2.43 µM (inactive) | 17.3 µM (inactive) | 0.433 µM (active) | 0.733 µM (active) | 0.145 µM (active) | 8.59 µM (inactive)
13 | COc1cccc(-c2cc(O)c3cc(N4CCOCC4)ccc3n2)c1 | 0.0258 µM (active) | 0.0221 µM (active) | 0.0383 µM | 0.0375 µM (active) | 0.0158 µM (active) | 0.0376 µM (active) | 0.0324 µM (active) | 4.26 µM (inactive) | > 10 µM (inactive) | 0.0391 µM (active) | – | 0.00834 µM (active) | 0.0524 µM (active) | 0.0201 µM (active) | 0.361 µM (active) | 6.76 µM (inactive) | 0.0204 µM (active) | 0.0543 µM (active) | 0.041 µM (active) | 0.0748 µM (active)
14 | O=C1CC(=O)NC(NN2C(=O)CSC2c2ccc(Cl)c(Cl)c2)=N1 (stereo unspecified) | 42.6 µM (inactive) | 63.2 µM (inactive) | > 100 µM | > 100 µM (inactive) | 71.8 µM (inactive) | > 100 µM (inactive) | > 100 µM (inactive) | > 100 µM (inactive) | > 100 µM (inactive) | 23.3 µM (inactive) | 76.2 µM (inactive) | 65 µM (inactive) | > 100 µM (inactive) | > 100 µM (inactive) | > 100 µM (inactive) | > 100 µM (inactive) | > 100 µM (inactive) | – | > 100 µM (inactive) | > 100 µM (inactive)
15 | O=[N+]([O-])C(C(Cl)=C(Cl)Cl)=C(N1CCOCC1)N1CCOCC1 | > 100 µM (inactive) | > 100 µM (inactive) | > 100 µM | > 100 µM (inactive) | > 100 µM (inactive) | – | – | > 100 µM (inactive) | > 100 µM (inactive) | 63.2 µM (inactive) | > 100 µM (inactive) | > 100 µM (inactive) | > 100 µM (inactive) | > 100 µM (inactive) | > 100 µM (inactive) | > 100 µM (inactive) | > 100 µM (inactive) | > 100 µM (inactive) | > 100 µM (inactive) | > 100 µM (inactive)
